Laboratory results as given in publication PMC10693528, “A high-throughput metabolomics in vitro platform for the characterization of hepatotoxicity” (Cell Biology and Toxicology, 2023).

System: HepG2 cells
Experiment: LC-MS/MS targeted intracellular metabolomics
Assay type: cell-based, human
Details: Suppl Fig 11, C3, 48 h
Experimental: Metabolite profiling of cells was performed directly in the same 96-well plate according to a standardized protocol described below. In order to prevent any interaction with the cell material, the automatic sampler was adjusted to pick up the sample from the supernatant at a specified depth avoiding the contact with the bottom of the plate.
After the initial quenching step (50 μL isopropanol 80%), additional 70 μL of isopropanol 80%, containing internal standards (methionine-D3, tryptophan-D5, arginine-13C6-15N4, Boc-Ala-Gly-Gly-Gly-OH, coenzyme Q1, coenzyme Q2, coenzyme Q4) were added to each well. The internal standards were used for quality control by visual inspection (signal intensity, peak shape, retention time); they were not used for normalization. Afterwards, plates were shaken for 5 min, 750 rpm at 20 °C, and placed for 30 s in the ultrasonic device. Then, the plates were centrifugated for 10 min, at 5485 g, 15 °C. Further, 2.5 μL of the extract were injected each for reversed-phase and hydrophilic interaction liquid chromatography followed by MS/MS detection (AB Sciex QTrap 6500+) using the positive and negative ionization mode. For reverse-phase high-performance liquid chromatography (RP-HPLC, Ascentis Express C18, 5 cm × 2.1 mm, 2.7 μm Supelco), gradient elution was performed with mobile phase A, water/methanol/0.1 M ammonium formate (1:1:0.02, w/w), and B, methyl-tert-butylether/2-propanol/methanol/0.1 M ammonium formate/formic acid (4:2:1:0.07:0.035, w/w) 5.9 min linear gradient: 0 min 100% A, 0.5 min 75% A, 5.9 min 10% A; followed by 0% A until 6.7 min; re-equilibration at 100% A until 7.7 min; flow rate 600 μL/min; column temperature 40 °C HILIC (ZIC-HILIC, 2.1 × 100 mm, 3.5 μm, Supelco) gradient elution was performed with mobile phase C, acetonitrile/water (99:1, v/v) with 0.2% (v) acetic acid, and D, 7 mM ammonium acetate with 0.2% (v) acetic acid (5.0 min linear gradient: 0 min 100% C, 5 min 10% C; followed by a linear gradient back to 100%C until 6.5 min; re-equilibration at 100% C until 7.5 min; flow rate 600 μL/min; column temperature 40 °C.). Two LC-MS systems with identical configuration were used for the analysis. Normalization to lyophilized reference samples (see below) was used to compensate for variation from between analytical batches. The efficiency of this normalization procedure was checked by principal component analysis (PCA), confirming that Pool samples from different analytical batches clustered together.
Reference samples derived from lyophilized untreated HepG2 cells (technical control samples) were measured in parallel throughout the entire analytical process. Data were normalized against the median of these lyophilized HepG2 cells reference samples, to give normalized ratios (performed for each sample per metabolite). This compensated for inter- and intra-instrumental variation. To correct for small differences in cell numbers within and between different treatment groups, data were also normalized to the within sample median, as described in detail by (Ramirez et al. [2018]). For intracellular metabolomic analysis, the median of each sample was calculated across all the 221 measured metabolites.
To generate metabolic profiles for the different treatments, heteroscedastic t test (Welch test) was applied to log-transformed normalized metabolite data to compare treated groups with their respective controls.
Principal component analysis (PCA) and hierarchical clustering (HCA) analyses were performed using R software environment (https://www.r-project.org/). PCA was conducted using the ropls package (Thévenot et al. [2015]) with log10-transformed input data and standard scaling. HCA was performed using the pvclust package (Suzuki et al. [2019]), (https://CRAN.R-project.org/package=pvclust). Input: log10(Ratio), clustering method: Ward D2, distance method: Manhattan, bootstrapping: 10000 times.

`CC(=O)N1CCN(c2ccc(OCC3COC(Cn4ccnc4)(c4ccc(Cl)cc4Cl)O3)cc2)CC1` (centres unmarked) [Ketoconazole] was tested, and the “2'-Deoxycytidine level vs controls” value was 0.76, the “5-Hydroxytryptophan level vs controls” value was 0.87 and the “Carnitine level vs controls” value was 0.77. The “Ceramide (d16:1.C24:0) level vs controls” value was 0.48, the “Ceramide (d17:1.C24:0) level vs controls” value was 0.40 and the “Ceramide (d18:1.C16:0) level vs controls” value was 0.74. The “Ceramide (d18:1.C18:0) level vs controls” value was 0.58, the “Ceramide (d18:1.C20:0) level vs controls” value was 0.38 and the “Ceramide (d18:1.C21:0) level vs controls” value was 0.64. For the same molecule, the “Ceramide (d18:1.C22:0) level vs controls” value was 0.54, the “Ceramide (d18:1.C23:0) level vs controls” value was 0.50 and the “Ceramide (d18:1.C24:0) level vs controls” value was 0.60. For the same molecule, the “Ceramide (d18:1.C24:1) level vs controls” value was 0.70, the “Ceramide (d18:2.C16:0) level vs controls” value was 0.55 and the “Ceramide (d18:2.C18:0) level vs controls” value was 0.38. The “Ceramide (d18:2.C22:0) level vs controls” value was 0.39, the “Ceramide (d18:2.C23:0) level vs controls” value was 0.49 and the “Ceramide (d18:2.C24:0) level vs controls” value was 0.48. The “Ceramide (d18:2.C24:1) level vs controls” value was 0.66, the “Ceramide (d18:2.C24:2) level vs controls” value was 0.36 and the “Cholesterylester (C20:2) level vs controls” value was 0.58. For the same molecule, the “Choline plasmalogen (C36:4) level vs controls” value was 1.23, the “Choline plasmalogen (C36:5) level vs controls” value was 1.44 and the “Coenzyme Q10 level vs controls” value was 0.65. The “Glutamate level vs controls” value was 0.92, the “Glutathione (GSH) level vs controls” value was 0.90 and the “Hexadecanoylcarnitine level vs controls” value was 1.97. For the same molecule, the “Hexadecenoylcarnitine level vs controls” value was 3.61, the “Isopentenyl pyrophosphate (IPP) level vs controls” value was 0.50 and the “Lysophosphatidylcholine (C14:0) level vs controls” value was 1.21. For the same molecule, the “Lysophosphatidylcholine (C16:0) level vs controls” value was 1.96, the “Lysophosphatidylcholine (C16:1) level vs controls” value was 2.67 and the “Lysophosphatidylcholine (C20:0) level vs controls” value was 1.34. The “Lysophosphatidylcholine (C20:1) level vs controls” value was 1.07, the “Lysophosphatidylcholine (C20:4) level vs controls” value was 6.43 and the “Lysophosphatidylcholine (C22:0) level vs controls” value was 1.53. The “Lysophosphatidylcholine (C24:1) level vs controls” value was 2.21, the “Lysophosphatidylethanolamine (C16:0) level vs controls” value was 0.82 and the “Lysophosphatidylethanolamine (C18:0) level vs controls” value was 1.22. For the same molecule, the “Lysophosphatidylethanolamine (C20:4) level vs controls” value was 4.71, the “Lysophosphatidylethanolamine (C22:6) level vs controls” value was 4.79 and the “N-Acetylaspartate level vs controls” value was 0.69. For the same molecule, the “N-Acetylserine level vs controls” value was 0.84, the “Octadecenoylcarnitine level vs controls” value was 3.35 and the “Pantothenic acid level vs controls” value was 0.85. The “Phosphatidylcholine (C32:0) level vs controls” value was 0.81, the “Phosphatidylcholine (C34:0) level vs controls” value was 0.81 and the “Phosphatidylcholine (C34:1) level vs controls” value was 0.79. For the same molecule, the “Phosphatidylcholine (C34:2) level vs controls” value was 0.89, the “Phosphatidylcholine (C34:3) level vs controls” value was 1.19 and the “Phosphatidylcholine (C36:1) level vs controls” value was 0.77. For the same molecule, the “Phosphatidylcholine (C36:2) level vs controls” value was 0.64, the “Phosphatidylcholine (C36:3) level vs controls” value was 0.89 and the “Phosphatidylcholine (C36:4) level vs controls” value was 0.67. For the same molecule, the “Phosphatidylcholine (C36:5) level vs controls” value was 0.66, the “Phosphatidylcholine (C38:4) level vs controls” value was 1.06 and the “Phosphatidylcholine (C38:6) level vs controls” value was 0.74. For the same molecule, the “Phosphatidylcholine (C40:6) level vs controls” value was 1.10, the “Phosphatidylcholine (C40:7) level vs controls” value was 1.16 and the “Phosphatidylcholine (C40:8) level vs controls” value was 1.11. The “Phosphatidylethanolamine (C32:0) level vs controls” value was 0.86, the “Phosphatidylethanolamine (C34:0) level vs controls” value was 0.73 and the “Phosphatidylethanolamine (C34:1) level vs controls” value was 0.82. For the same molecule, the “Phosphatidylethanolamine (C36:0) level vs controls” value was 0.70, the “Phosphatidylethanolamine (C36:1) level vs controls” value was 0.78 and the “Phosphatidylethanolamine (C36:2) level vs controls” value was 0.93. The “Phosphatidylethanolamine (C36:4) level vs controls” value was 0.96, the “Phosphatidylethanolamine (C38:3) level vs controls” value was 0.90 and the “Phosphatidylethanolamine (C38:4) level vs controls” value was 1.10. For the same molecule, the “Phosphatidylethanolamine (C38:5) level vs controls” value was 1.10, the “Phosphatidylethanolamine (C38:6) level vs controls” value was 0.86 and the “Phosphatidylethanolamine (C40:7) level vs controls” value was 1.09. The “Phosphocholine level vs controls” value was 0.82, the “Pipecolic acid level vs controls” value was 0.86 and the “Proline level vs controls” value was 0.79. For the same molecule, the “Pyridoxal level vs controls” value was 0.82, the “S-Adenosylhomocysteine level vs controls” value was 0.69 and the “Sphingomyelin (d32:1) level vs controls” value was 1.49. The “Sphingomyelin (d32:2) level vs controls” value was 1.28, the “Sphingomyelin (d33:1) level vs controls” value was 1.18 and the “Sphingomyelin (d34:0) level vs controls” value was 2.87. For the same molecule, the “Sphingomyelin (d34:2) level vs controls” value was 1.31, the “Sphingomyelin (d35:1) level vs controls” value was 1.86 and the “Sphingomyelin (d35:2) level vs controls” value was 1.71. For the same molecule, the “Sphingomyelin (d36:1) level vs controls” value was 1.62, the “Sphingomyelin (d36:2) level vs controls” value was 1.45 and the “Sphingomyelin (d36:3) level vs controls” value was 1.48. For the same molecule, the “Sphingomyelin (d37:1) level vs controls” value was 1.49, the “Sphingomyelin (d38:1) level vs controls” value was 1.42 and the “Sphingomyelin (d38:2) level vs controls” value was 1.21. For the same molecule, the “Sphingomyelin (d39:1) level vs controls” value was 1.79, the “Sphingomyelin (d40:1) level vs controls” value was 1.85 and the “Sphingomyelin (d40:2) level vs controls” value was 1.67. For the same molecule, the “Sphingomyelin (d41:1) level vs controls” value was 1.75, the “Sphingomyelin (d41:2) level vs controls” value was 1.88 and the “Sphingomyelin (d42:1) level vs controls” value was 1.54. For the same molecule, the “Sphingomyelin (d42:2) level vs controls” value was 1.83, the “Taurine level vs controls” value was 1.32 and the “Tetradecanoylcarnitine level vs controls” value was 2.20. The “Threonine level vs controls” value was 0.85, the “Triacylglycerol (C30:0.C18:1) level vs controls” value was 0.61 and the “Triacylglycerol (C32:0.C16:0) level vs controls” value was 0.23. For the same molecule, the “Triacylglycerol (C32:0.C16:1) level vs controls” value was 0.51, the “Triacylglycerol (C34:0.C16:0) level vs controls” value was 0.16 and the “Triacylglycerol (C34:0.C17:0) level vs controls” value was 0.34. For the same molecule, the “Triacylglycerol (C34:0.C18:0) level vs controls” value was 0.14, the “Triacylglycerol (C34:0.C18:1) level vs controls” value was 0.31 and the “Triacylglycerol (C34:1.C16:0) level vs controls” value was 0.44. For the same molecule, the “Triacylglycerol (C34:1.C18:1) level vs controls” value was 0.83, the “Triacylglycerol (C34:1.C18:3) level vs controls” value was 1.33 and the “Triacylglycerol (C34:2.C18:0) level vs controls” value was 0.68. The “Triacylglycerol (C34:2.C18:1) level vs controls” value was 1.31, the “Triacylglycerol (C36:1.C18:0) level vs controls” value was 0.27 and the “Triacylglycerol (C36:1.C18:1) level vs controls” value was 0.61. The “Triacylglycerol (C36:2.C18:1) level vs controls” value was 1.14, the “Triacylglycerol (C36:3.C18:1) level vs controls” value was 1.57 and the “Triacylglycerol (C36:3.C18:2) level vs controls” value was 2.03. The “Triacylglycerol (C36:4.C16:0) level vs controls” value was 1.15, the “Triacylglycerol (C36:4.C18:0) level vs controls” value was 1.19 and the “myo-Inositol-2-phosphate level vs controls” value was 0.50. The “Sphingomyelin (d34:1) level vs controls” value (first of two lines with this name) was 1.40 and the “Sphingomyelin (d34:1) level vs controls” value (second of two lines with this name) was 1.16.
